# Source: patent US9993494B2, “Compositions and methods for treating fibrotic disease” (eFFECTOR Therapeutics, Inc., priority 2014, dated 2018)
# Test system: normal human lung fibroblasts
# Assay: Ribosomal profiling: translational efficiency in TGFβ-treated fibroblasts
# Type: cell-based
# Conditions: TGFβ-treated fibroblasts
# Experimental: Ribosomal profiling allows for measurement of changes in transcription and translation on a genome-wide basis accompanying TGFβ-dependent transformation of fibroblasts to myofibroblasts. Ribosomal profiles of the TGFβ-treated fibroblasts from Example 1 (about 6×10^6 cells/10 cm plate) were prepared and analyzed for changes in translational efficiencies with respect to potential disease-associated cellular changes accompanying this TGFβ-induced transformation.
# Briefly, cells were washed with cold PBS supplemented with cycloheximide and lysed with 1× mammalian cell lysis buffer for 10 minutes on ice. Lysates were clarified by centrifugation for 10 minutes at 14,000 rpm and supernatants were collected. Cell lysates were processed to generate ribosomal protected fragments and total mRNA according to the instructions included with the ARTseq Ribosome Profiling Kit (Illumina, San Diego, Calif.). Sequencing of total RNA (RNA) and of ribosome-protected fragments of RNA (RPF) was carried out using RNA-Seq methodology according to the manufacturer's instructions (Illumina). To analyze the ribosomal profiles, RNA-Seq reads were processed with tools from the FASTX-Toolkit (fastq_quality_trimmer, fastx_clipper and fastx_trimmer). Unprocessed and processed reads were evaluated for a variety of quality measures using FastQC, and processed reads were mapped to the human genome using TopHat (see, e.g., Trapnell et al., Bioinformatics 25:1105, 2009). Gene-by-gene assessment of the number of fragments strictly and uniquely mapping to the coding region of each gene was conducted using HTSeq-count, a component of the HTSeq package. […] Genes with low counts in either RPF or RNA were excluded from differential analyses. Pathway and network analyses of differential data were conducted using Ingenuity Pathway Analysis (IPA).
compound,measurement,setting,value
CC(C)n1nc(-c2cc3cc(O)ccc3[nH]2)c2c(N)ncnc21 [PP242],renormalizing the translational profile of DNASE1L1,ENSG00000013563,− (− = <0.9)
same,renormalizing the translational profile of ADAMTS6,ENSG00000049192,− (− = <0.9)
same,renormalizing the translational profile of LETMD1,ENSG00000050426,− (− = <0.9)
same,renormalizing the translational profile of PLEKHA5,ENSG00000052126,− (− = <0.9)
same,renormalizing the translational profile of EIF4B,ENSG00000063046,+ (+ = 0.9 to 1.5)
same,renormalizing the translational profile of RPL18,ENSG00000063177,+ (+ = 0.9 to 1.5)
same,renormalizing the translational profile of HIPK2,ENSG00000064393,− (− = <0.9)
same,renormalizing the translational profile of ASPM,ENSG00000066279,+ (+ = 0.9 to 1.5)
same,renormalizing the translational profile of RASSF1,ENSG00000068028,− (− = <0.9)
same,renormalizing the translational profile of PABPC1,ENSG00000070756,− (− = <0.9)
same,renormalizing the translational profile of RPL31,ENSG00000071082,+ (+ = 0.9 to 1.5)
same,renormalizing the translational profile of PLD1,ENSG00000075651,− (− = <0.9)
same,renormalizing the translational profile of EDN1,ENSG00000078401,− (− = <0.9)
same,renormalizing the translational profile of AURKA,ENSG00000087586,− (− = <0.9)
same,renormalizing the translational profile of EPB41L1,ENSG00000088367,− (− = <0.9)
same,renormalizing the translational profile of RPL6,ENSG00000089009,− (− = <0.9)
same,renormalizing the translational profile of P2RX7,ENSG00000089041,+ (+ = 0.9 to 1.5)
same,renormalizing the translational profile of RPLP0,ENSG00000089157,− (− = <0.9)
same,renormalizing the translational profile of IGBP1,ENSG00000089289,− (− = <0.9)
same,renormalizing the translational profile of IRAK3,ENSG00000090376,− (− = <0.9)
same,renormalizing the translational profile of PABPC4,ENSG00000090621,− (− = <0.9)
same,renormalizing the translational profile of FMO2,ENSG00000094963,+++ (+++ = >2.0)
same,renormalizing the translational profile of ACOT7,ENSG00000097021,− (− = <0.9)
same,renormalizing the translational profile of ATP5D,ENSG00000099624,− (− = <0.9)
same,renormalizing the translational profile of LGALS1,ENSG00000100097,− (− = <0.9)
same,renormalizing the translational profile of EIF3L,ENSG00000100129,− (− = <0.9)
same,renormalizing the translational profile of RPL3,ENSG00000100316,− (− = <0.9)
same,renormalizing the translational profile of CEP192,ENSG00000101639,− (− = <0.9)
same,renormalizing the translational profile of AMMECR1,ENSG00000101935,− (− = <0.9)
same,renormalizing the translational profile of PLP2,ENSG00000102007,− (− = <0.9)
same,renormalizing the translational profile of EIF3E,ENSG00000104408,+ (+ = 0.9 to 1.5)
same,renormalizing the translational profile of EEF1D,ENSG00000104529,− (− = <0.9)
same,renormalizing the translational profile of C19orf53,ENSG00000104979,− (− = <0.9)
same,renormalizing the translational profile of GLTSCR2,ENSG00000105373,+ (+ = 0.9 to 1.5)
same,renormalizing the translational profile of RAB3D,ENSG00000105514,+ (+ = 0.9 to 1.5)
same,renormalizing the translational profile of RPL18A,ENSG00000105640,+ (+ = 0.9 to 1.5)
same,renormalizing the translational profile of COMP,ENSG00000105664,− (− = <0.9)
same,renormalizing the translational profile of GLCCI1,ENSG00000106415,+ (+ = 0.9 to 1.5)
same,renormalizing the translational profile of CORO2A,ENSG00000106789,− (− = <0.9)
same,renormalizing the translational profile of GDF10,ENSG00000107623,− (− = <0.9)
same,renormalizing the translational profile of RPL28,ENSG00000108107,− (− = <0.9)
same,renormalizing the translational profile of RPL19,ENSG00000108298,− (− = <0.9)
same,renormalizing the translational profile of RASD1,ENSG00000108551,− (− = <0.9)
same,renormalizing the translational profile of NAT9,ENSG00000109065,− (− = <0.9)
same,renormalizing the translational profile of RPL34,ENSG00000109475,− (− = <0.9)
same,renormalizing the translational profile of CRYAB,ENSG00000109846,− (− = <0.9)
same,renormalizing the translational profile of GAPDH,ENSG00000111640,+ (+ = 0.9 to 1.5)
same,renormalizing the translational profile of C12orf57,ENSG00000111678,− (− = <0.9)
same,renormalizing the translational profile of MDFI,ENSG00000112559,− (− = <0.9)
same,renormalizing the translational profile of HBEGF,ENSG00000113070,− (− = <0.9)
same,renormalizing the translational profile of RPL24,ENSG00000114391,− (− = <0.9)
same,renormalizing the translational profile of EEF1B2,ENSG00000114942,− (− = <0.9)
same,renormalizing the translational profile of IFIH1,ENSG00000115267,+ (+ = 0.9 to 1.5)
same,renormalizing the translational profile of DPH5,ENSG00000117543,− (− = <0.9)
same,renormalizing the translational profile of PPL,ENSG00000118898,− (− = <0.9)
same,renormalizing the translational profile of PLEKHG1,ENSG00000120278,− (− = <0.9)
same,renormalizing the translational profile of LIAS,ENSG00000121897,− (− = <0.9)
same,renormalizing the translational profile of GPSM2,ENSG00000121957,− (− = <0.9)
same,renormalizing the translational profile of RPL21,ENSG00000122026,− (− = <0.9)
same,renormalizing the translational profile of RPL5,ENSG00000122406,+ (+ = 0.9 to 1.5)
same,renormalizing the translational profile of INHBA,ENSG00000122641,− (− = <0.9)
same,renormalizing the translational profile of CIT,ENSG00000122966,− (− = <0.9)
same,renormalizing the translational profile of RPL23,ENSG00000125691,− (− = <0.9)
same,renormalizing the translational profile of LAMP5,ENSG00000125869,− (− = <0.9)
same,renormalizing the translational profile of NECAB3,ENSG00000125967,− (− = <0.9)
